Measured values from patent US12460184B2, “Cell primed with CTGF-D4 and insulin or IGF-1 and use in methods for cardiac tissue repair” (University of Vermont and State Agriculture College, priority 2013, dated 2025).

Assays:
adult rat CPCs [1] = experiment: CPC protection during hypoxia (1% oxygen, 48 hrs); format: cell-based; conditions: for CdM-mediated protection of CPCs under hypoxic conditions: STAT3 inhibitor 10 μM added to CdM; for protection of CPCs against 48 hr of hypoxia: 1 ng/ml (each) in SFM; for CPC number after hypoxia: 30 ng/ml alone, control SFM with 1% BSA 9004 cells, mean±SD
Description: (§1) Adult rat CPCs and cardiac fibroblasts were plated at 500 cells/cm^2 and cultured in their respective growth mediums. Three days after plating, the medium was removed, the wells were washed twice with PBS, and the cells were then exposed to CdM or to fresh serum-free medium (Alpha-MEM). For time course proliferation studies, CdM and serum-free medium were changed every 2 days. In signal transduction inhibitor studies, the following pharmacological inhibitors were used: AG490, inhibitor of Jak2/STAT3 pathway; Stattic, inhibitor of STAT3; LY294002, inhibitor of phosphatidylinositol 3-kinase (PI3K)/Akt pathway; and PD98059, inhibitor of extracellular signal-regulated kinase (ERK). All of the inhibitors were purchased from Calbiochem (Darmstadt, Germany) and were dissolved in dimethyl sulfoxide (DMSO). CPCs were cultured in CdM with the inhibitors or with the equivalent volume of DMSO as a control for 48 hrs. In cell protection studies, 3 days after plating, medium was replaced with either the CdM or serum-free medium and the cells were exposed to hypoxia in a specialized incubator (1% oxygen) for 48 hrs. The hypoxia incubator was a model that measured both CO2 and O2 (Thermo Electron, Forma Series II, model 3130). Oxygen was maintained at 1% by the injection of nitrogen gas and was monitored continuously.
Cell numbers were quantified by the fluorescent labeling of nucleic acids (CyQuant dye; Molecular Probes, Carlsbad, CA) and with a microplate fluorescence reader (FL×800; Bio-Tek Instruments Inc., Winooski, VT) set to 480 nm excitation and 520 nm emission. Each experiment was repeated a minimum of 3 times.

adult rat CPCs [2] = experiment: Signal transduction inhibitor studies, CPCs cultured in CdM; format: cell-based; conditions: for cell number ratio to control cell number: CPCs in MSC CdM, 48 hrs, control CdM+DMSO = 100%
Description: as §1, with “continuously. Cell numbers were quantified by the fluorescent labeling of nucleic acids (CyQuant dye; Molecular Probes, Carlsbad, CA) and with a microplate fluorescence reader (FL×800; Bio-Tek Instruments Inc., Winooski, VT) set to 480 nm excitation and 520 nm emission. Each experiment was repeated a minimum of 3 times.” for “continuously.”

Akt = experiment: Immunoblotting for phosphorylated Akt in CPCs; format: cell-based, rat; conditions: recombinant human Insulin, 30 min incubation
Description: (§2) Cells were lysed in a buffer that consisted of 0.1% sodium dodecyl sulphate (SDS) and complete protease inhibitor cocktail (Roche, Basel, Switzerland) in PBS. Protein concentration was determined by the DC protein assay (Biorad, Hercules, CA). Twenty μg of protein was separated by SDS-PAGE. After electrophoresis, the gels were electroblotted to polyvinylidene difluoride (PVDF) membranes. All electrophoresis and electroblotting used Novex reagents and systems (Invitrogen, Carlsbad, Calif.). The blots were blocked for 1 hr at RT in 5% nonfat dry milk in PBS with 0.1% Tween 20 (PBST), washed 3×5 min in PBST, and incubated in primary antibodies in PBST with 5% BSA overnight at 4° C. After 3×5 min washes in PBST, the blots were incubated in secondary antibody conjugated to horseradish peroxidase conjugate (1:2000, Sigma) in PBST for 1 hr at RT. Unbound secondary antibody was removed and positive bands were detected with a chemiluminescent reaction. The primary antibodies for immunoblotting were Ki67 (clone SP6, 1:200, Abcam, Cambridge, MA); p-STAT3 (Tyr705, 1:1000), total STAT3 (1:1000), p-Akt (Ser 473, 1:1000)(Cell signaling); and β-actin (1:5000, Sigma).

STAT3 = experiment: Immunoblotting for phosphorylated STAT3 in CPCs; format: cell-based, rat; conditions: 3 ng/ml, 30 min, SFM containing 1% BSA
Description: as §2

EPDCs [3] = experiment: EPDC protection by CTGF-D4 under hypoxia (1% oxygen, 48 hr); format: cell-based, rat; conditions: blocker added
EPDCs [4] = experiment: Western blots for differentiation and adhesion/migration markers in EPDCs; format: cell-based; conditions: exposure to CTGF-D4
canonical Wnt pathway = experiment: Canonical Wnt pathway signaling in EPDCs (p-GSK3β, nuclear β-catenin); format: cell-based, rat
EPDCs [5] = experiment: Ex vivo adhesion assay of EPDCs to fibronectin; format: cell-based; conditions: 40 ng/ml

N#C/C(=C/c1ccc(O)c(O)c1)C(=O)NCc1ccccc1 [AG490]
CdM-mediated protection of CPCs under hypoxic conditions (adult rat CPCs [1]): abolished CdM-mediated protection | cell number ratio to control cell number (adult rat CPCs [2]; 1 μM): 96.3±0.9% | cell number ratio to control cell number (adult rat CPCs [2]; 5 μM): 89.5±0.9% | CPC number (adult rat CPCs [2]; 10 μM, CPCs in CdM from p75MSCs or fibroblasts): inhibitory effect | cell number ratio to control cell number (adult rat CPCs [2]; 10 μM): 43.4±2.4%

Insulin: recombinant human Insulin, dimer of A-chain and B-chain
protection of CPCs against 48 hr of hypoxia (adult rat CPCs [1]): did not protect CPCs | CPC number after hypoxia (adult rat CPCs [1]): 13,507±1,473 cells | CPC survival and proliferation (adult rat CPCs [1]; recombinant human Insulin): increased also CPC survival and proliferation | p-Akt in CPCs (Akt): induced p-Akt in a dose-responsive manner

COc1cccc(-c2cc(=O)c3ccccc3o2)c1N [PD98059]
CPC proliferation in CdM (adult rat CPCs [2]; ERK inhibitor): did not diminish CPC proliferation

O=[N+]([O-])c1ccc2c(c1)S(=O)(=O)C=C2 [Stattic, reference compound]
CdM-mediated protection of CPCs under hypoxic conditions (adult rat CPCs [1]): abolished CdM-mediated protection | growth of CPCs in p75MSC CdM (adult rat CPCs [2]; 10 μM, vs DMSO vehicle, day 2 and 4): abolished

IGF-1: human Insulin-like growth factor 1
CPC number after hypoxia (adult rat CPCs [1]): 14,894±559 cells

B1: human CTGF: connective tissue growth factor, full-length polypeptide SEQ ID NO: 1 (protein, listed as Homo sapiens)
chain: MTAASMGPVRVAFVVLLALCSRPAVGQNCSGPCRCPDEPAPRCPAGVSLVLDGCGCCRVCAKQLGELCTERDPCDPHKGLFCDFGSPANRKIGVCTAKDGAPCIFGGTVYRSGESFQSSCKYQCTCLDGAVGCMPLCSMDVRLPSPDCPFPRRVKLPGKCCEEWVCDEPKDQTVVGPALAAYRLEDTFGPDPTMIRANCLVQTTEWSACSKTCGMGISTRVTNDNASCRLEKQSRLCMVRPCEADLEENIKKGKKCIRTPKISKPIKFELSGCTSMKTYRAKFCGVCTDGRCCTPHRTTTLPVEFKCPDGEVMKKNMMFIKTCACHYNCPGDNDIFESLYYRKMYGDMA
p-STAT3 in CPCs (STAT3): significantly induced p-STAT3

B2: Dkk-1: a secreted inhibitor of Lrp6 (protein, UniProt O94907 32-266, looked up)
Dickkopf-related protein 1: TLNSVLNSNAIKNLPPPLGGAAGHPGSAVSAAPGILYPGGNKYQTIDNYQPYPCAEDEECGTDEYCASPTRGGDAGVQICLACRKRRKRCMRHAMCCPGNYCKNGICVSSDQNHFRGEIEETITESFGNDHSTLDGYSRRTTLSSKMYHTKGQEGSVCLRSSDCASGLCCARHFWSKICKPVLKEGQVCTKHRRKGSHGLEIFQRCYCGEGLSCRIQKDHHQASNSSRLHTCQRH
protection of EPDCs conferred by CTGF-D4 (EPDCs [3]): significantly reduced the protection

B3: CTGF-D4: recombinant human C-terminal (domain 4) CTGF peptide, SEQ ID NO: 2 (protein, listed as Homo sapiens)
chain: MGKKCIRTPKISKPIKFELSGCTSMKTYRAKFCGVCTDGRCCTPHRTTTLPVEFKCPDGEVMKKNMMFIKTCACHYNCPGDNDIFESLYYRKMYGDMA
EMT-like differentiation (SMA, CD90, ETrB protein levels) (EPDCs [4]): promoted EMT-like differentiation | levels of Von Willebrand Factor (EPDCs [4]): did not seem to be affected | protection of CPCs against 48 hr of hypoxia (adult rat CPCs [1]): did not protect CPCs | signaling through the canonical Wnt pathway (p-GSK3β, nuclear β-catenin) (canonical Wnt pathway): promoted signaling through the canonical Wnt pathway | adhesion of EPDCs to fibronectin (EPDCs [5]): promoted adhesion of EPDCs to fibronectin
